# Target: Glutaminyl-peptide cyclotransferase (Homo sapiens, UniProt Q16769)
# Assay: Inhibitory activity against human glutaminyl cyclase
# Sequence of Glutaminyl-peptide cyclotransferase (Q16769 whole entry): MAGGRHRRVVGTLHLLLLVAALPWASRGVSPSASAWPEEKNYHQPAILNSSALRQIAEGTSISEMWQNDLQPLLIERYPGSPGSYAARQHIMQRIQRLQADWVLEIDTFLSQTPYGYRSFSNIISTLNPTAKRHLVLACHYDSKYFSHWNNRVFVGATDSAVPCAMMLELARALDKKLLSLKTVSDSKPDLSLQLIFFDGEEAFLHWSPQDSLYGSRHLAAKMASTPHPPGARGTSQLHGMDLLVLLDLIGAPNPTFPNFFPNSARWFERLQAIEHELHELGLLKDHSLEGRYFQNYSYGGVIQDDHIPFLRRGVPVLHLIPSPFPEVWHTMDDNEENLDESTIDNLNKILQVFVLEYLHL
row,Ki,SMILES
1,4.7 µM,S=C(NCCCn1ccnc1)NC1CCCCC1
2,0.7 µM,O=C1CNC(=S)N1CCCn1ccnc1

# — ChEMBL document CHEMBL1147743, “The first potent inhibitors for human glutaminyl cyclase: synthesis and structure-activity relationship” (J Med Chem, 2006)
